Assay results reported in PubChem BioAssay AID248 (DTP/NCI, 2004).
Where “and” joins values, the source holds several entries; their conditions need not be identical. Equal entries are not always repeated. Toxic doses and inconclusive results are not listed. No stated cut-off is given here; in the data, active means T/C of 150% or more; inactive means T/C below 125%.

Test system: L1210 leukemia ip in BDF1 mice, survival T/C
Test: NCI In Vivo Anticancer Drug Screen. Data for tumor model L1210 Leukemia (intraperitoneal) in B6D2F1 (BDF1) mice
Conditions: higher = longer survival
Summary of the method: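 Survival endpoint. Drug-treated group vs vehicle group, expressed as T divided by C. Tumor passaged by transplantation.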

[1] = endpoint: mean survival time, dose: 100.0 mg/kg/injection, schedule: Q04DX003 (ip), vehicle: saline
[2] = endpoint: mean survival time, dose: 200.0 mg/kg/injection, schedule: Q04DX003 (ip), vehicle: saline
[3] = endpoint: mean survival time, dose: 100.0 mg/kg/injection, schedule: Q01DX001 (ip), vehicle: saline

Measured: T/C

CN(N=O)C(=O)N[C@@H](C=O)[C@@H](O)[C@H](O)[C@H](O)CO
inactive: endpoint: mean survival time, dose: 0.5 mg/kg/injection, schedule: Q03HX040 (ip), vehicle: other 94 % of control | endpoint: mean survival time, dose: 1.0 mg/kg/injection, schedule: Q03HX040 (ip), vehicle: other 98 % of control | endpoint: mean survival time, dose: 2.0 mg/kg/injection, schedule: Q03HX040 (ip), vehicle: other 92 % of control | endpoint: mean survival time, dose: 2.3 mg/kg/injection, schedule: Q01DX009 (ip), vehicle: other 96 % of control and 101 % of control | endpoint: mean survival time, dose: 4.0 mg/kg/injection, schedule: Q03HX040 (ip), vehicle: other 104 % of control | endpoint: mean survival time, dose: 4.5 mg/kg/injection, schedule: Q01DX009 (ip), vehicle: other 92 % of control and 105 % of control | endpoint: mean survival time, dose: 8.0 mg/kg/injection, schedule: Q03HX040 (ip), vehicle: other 112 % of control | endpoint: mean survival time, dose: 8.0 mg/kg/injection, schedule: Q## X009 (ip), vehicle: other 98 % of control | endpoint: mean survival time, dose: 9.0 mg/kg/injection, schedule: Q01DX009 (ip), vehicle: other 99 % of control and 111 % of control | endpoint: mean survival time, dose: 12.5 mg/kg/injection, schedule: Q01DX009 (ip), vehicle: saline 101 % of control and 107 % of control | endpoint: mean survival time, dose: 12.5 mg/kg/injection, schedule: Q01DX009 (ip), vehicle: water 104 % of control | endpoint: mean survival time, dose: 16.0 mg/kg/injection, schedule: Q01DX017 (ip), vehicle: other 107 % of control | endpoint: mean survival time, dose: 16.0 mg/kg/injection, schedule: Q03HX040 (ip), vehicle: other 110 % of control | endpoint: mean survival time, dose: 16.0 mg/kg/injection, schedule: Q## X009 (ip), vehicle: other 94 % of control | endpoint: mean survival time, dose: 17.0 mg/kg/injection, schedule: Q04DX002 (ip), vehicle: other 97 % of control and 113 % of control | endpoint: mean survival time, dose: 24.5 mg/kg/injection, schedule: Q01DX Z (ip), vehicle: water 112 % of control | endpoint: mean survival time, dose: 25.0 mg/kg/injection, schedule: Q01DX009 (ip), vehicle: other 120 % of control | endpoint: mean survival time, dose: 25.0 mg/kg/injection, schedule: Q01DX Z (ip), vehicle: water 115 % of control | endpoint: mean survival time, dose: 25.0 mg/kg/injection, schedule: Q04DX003 (ip), vehicle: saline 96 % of control and 100 % of control | endpoint: mean survival time, dose: 32.0 mg/kg/injection, schedule: Q01DX001 (ip), vehicle: other 100 % of control | endpoint: mean survival time, dose: 32.0 mg/kg/injection, schedule: Q02DX009 (ip), vehicle: other 112 % of control | endpoint: mean survival time, dose: 32.0 mg/kg/injection, schedule: Q04DX005 (ip), vehicle: other 101 % of control | endpoint: mean survival time, dose: 32.0 mg/kg/injection, schedule: Q08DX003 (ip), vehicle: other 101 % of control | endpoint: mean survival time, dose: 32.0 mg/kg/injection, schedule: Q## X009 (ip), vehicle: other 112 % of control | endpoint: mean survival time, dose: 49.5 mg/kg/injection, schedule: Q01DX Z (ip), vehicle: water 120 % of control | endpoint: mean survival time, dose: 50.0 mg/kg/injection, schedule: Q01DX009 (ip), vehicle: citric acid 110 % of control | endpoint: mean survival time, dose: 50.0 mg/kg/injection, schedule: Q04DX002 (ip), vehicle: saline 104 % of control | endpoint: mean survival time, dose: 50.0 mg/kg/injection, schedule: Q04DX003 (ip), vehicle: saline 105 % of control and 110 % of control | endpoint: mean survival time, dose: 64.0 mg/kg/injection, schedule: Q01DX001 (ip), vehicle: other 105 % of control | endpoint: mean survival time, dose: 64.0 mg/kg/injection, schedule: Q04DX005 (ip), vehicle: other 111 % of control | endpoint: mean survival time, dose: 64.0 mg/kg/injection, schedule: Q08DX003 (ip), vehicle: other 104 % of control | endpoint: mean survival time, dose: 67.0 mg/kg/injection, schedule: Q01DX009 (ip), vehicle: citric acid 116 % of control | endpoint: mean survival time, dose: 100.0 mg/kg/injection, schedule: Q01DX001 (ip), vehicle: other 103 % of control | endpoint: mean survival time, dose: 100.0 mg/kg/injection, schedule: Q01DX009 (ip), vehicle: citric acid 123 % of control and 124 % of control and 89 % of control | endpoint: mean survival time, dose: 100.0 mg/kg/injection, schedule: Q01DX009 (ip), vehicle: other 118 % of control | endpoint: mean survival time, dose: 100.0 mg/kg/injection, schedule: Q01DX Z (ip), vehicle: water 117 % of control | endpoint: mean survival time, dose: 100.0 mg/kg/injection, schedule: Q04DX002 (ip), vehicle: saline 120 % of control | [1] 97 % of control | endpoint: mean survival time, dose: 128.0 mg/kg/injection, schedule: Q01DX001 (ip), vehicle: other 114 % of control | endpoint: mean survival time, dose: 128.0 mg/kg/injection, schedule: Q02DX009 (ip), vehicle: other 117 % of control | endpoint: mean survival time, dose: 128.0 mg/kg/injection, schedule: Q04DX005 (ip), vehicle: other 118 % of control | endpoint: mean survival time, dose: 128.0 mg/kg/injection, schedule: Q08DX003 (ip), vehicle: other 111 % of control | endpoint: mean survival time, dose: 138.0 mg/kg/injection, schedule: Q01DX009 (ip), vehicle: other 92 % of control | endpoint: mean survival time, dose: 150.0 mg/kg/injection, schedule: Q01DX009 (ip), vehicle: citric acid 90 % of control | endpoint: mean survival time, dose: 200.0 mg/kg/injection, schedule: Q01DX001 (ip), vehicle: other 122 % of control | [2] 96 % of control and 97 % of control | endpoint: mean survival time, dose: 250.0 mg/kg/injection, schedule: Q01DX001 (ip), vehicle: citric acid 116 % of control | endpoint: mean survival time, dose: 256.0 mg/kg/injection, schedule: Q01DX001 (ip), vehicle: other 110 % of control | endpoint: mean survival time, dose: 256.0 mg/kg/injection, schedule: Q04DX005 (ip), vehicle: other 114 % of control | endpoint: mean survival time, dose: 256.0 mg/kg/injection, schedule: Q08DX003 (ip), vehicle: other 117 % of control | endpoint: mean survival time, dose: 300.0 mg/kg/injection, schedule: Q01DX001 (ip), vehicle: citric acid 118 % of control and 122 % of control | endpoint: mean survival time, dose: 300.0 mg/kg/injection, schedule: Q04DX002 (ip), vehicle: acid diluted with saline 93 % of control | endpoint: mean survival time, dose: 350.0 mg/kg/injection, schedule: Q01DX001 (ip), vehicle: citric acid 112 % of control | endpoint: mean survival time, dose: 400.0 mg/kg/injection, schedule: Q01DX001 (ip), vehicle: citric acid 111 % of control | endpoint: mean survival time, dose: 400.0 mg/kg/injection, schedule: Q01DX009 (ip), vehicle: saline 108 % of control | endpoint: mean survival time, dose: 400.0 mg/kg/injection, schedule: Q04DX002 (ip), vehicle: saline 93 % of control and 123 % of control | endpoint: mean survival time, dose: 518.0 mg/kg/injection, schedule: Q04DX002 (ip), vehicle: other 95 % of control | endpoint: median survival time, dose: 14.0 mg/kg/injection, schedule: Q01DX009 (ip), vehicle: Klucel (hydroxypropylcellulose) (HPC) 111 % of control | endpoint: median survival time, dose: 17.0 mg/kg/injection, schedule: Q01DX009 (ip), vehicle: water 108 % of control and 114 % of control | endpoint: median survival time, dose: 26.0 mg/kg/injection, schedule: Q01DX009 (ip), vehicle: water 104 % of control and 117 % of control | endpoint: median survival time, dose: 39.0 mg/kg/injection, schedule: Q01DX009 (ip), vehicle: Klucel (hydroxypropylcellulose) (HPC) 116 % of control | endpoint: median survival time, dose: 39.0 mg/kg/injection, schedule: Q01DX009 (ip), vehicle: water 111 % of control | endpoint: median survival time, dose: 87.0 mg/kg/injection, schedule: Q01DX009 (ip), vehicle: water 114 % of control | endpoint: median survival time, dose: 130.0 mg/kg/injection, schedule: Q01DX009 (ip), vehicle: water 86 % of control

Cc1cc[n+](CCCCCCCCCCO)cc1C
inactive: endpoint: mean survival time, dose: 87.5 mg/kg/injection, schedule: Q01DX001 (ip), vehicle: saline 97 % of control

O=C(O)CCl
inactive: endpoint: mean survival time, dose: 50.0 mg/kg/injection, schedule: Q01DX001 (ip), vehicle: saline 98 % of control | [3] 104 % of control

Cc1cccc(C)c1C1CC1S(=O)(=O)c1ccccc1 (stereo unspecified)
inactive: [3] 101 % of control | [1] 100 % of control | endpoint: mean survival time, dose: 200.0 mg/kg/injection, schedule: Q01DX001 (ip), vehicle: saline 98 % of control | [2] 94 % of control | endpoint: mean survival time, dose: 400.0 mg/kg/injection, schedule: Q01DX001 (ip), vehicle: saline 111 % of control | endpoint: mean survival time, dose: 400.0 mg/kg/injection, schedule: Q04DX003 (ip), vehicle: saline 104 % of control

N#Cc1ccc(/C=N/N2CCN(/N=C/c3ccc(C#N)cc3)CC2)cc1
inactive: endpoint: mean survival time, dose: 100.0 mg/kg/injection, schedule: Q01DX001 (ip), vehicle: carboxymethylcellulose (CMC) 96 % of control | endpoint: mean survival time, dose: 200.0 mg/kg/injection, schedule: Q01DX001 (ip), vehicle: carboxymethylcellulose (CMC) 91 % of control | endpoint: mean survival time, dose: 400.0 mg/kg/injection, schedule: Q01DX001 (ip), vehicle: carboxymethylcellulose (CMC) 94 % of control
